The first experiment has as its target recombinant human delta opioid receptor (Homo sapiens, UniProt P41143).
Assay: not given
The note with it: GTP-γS binding, screened up to 10 μM in agonist and antagonist mode.
recombinant human delta opioid receptor, sequence (P41143 whole entry): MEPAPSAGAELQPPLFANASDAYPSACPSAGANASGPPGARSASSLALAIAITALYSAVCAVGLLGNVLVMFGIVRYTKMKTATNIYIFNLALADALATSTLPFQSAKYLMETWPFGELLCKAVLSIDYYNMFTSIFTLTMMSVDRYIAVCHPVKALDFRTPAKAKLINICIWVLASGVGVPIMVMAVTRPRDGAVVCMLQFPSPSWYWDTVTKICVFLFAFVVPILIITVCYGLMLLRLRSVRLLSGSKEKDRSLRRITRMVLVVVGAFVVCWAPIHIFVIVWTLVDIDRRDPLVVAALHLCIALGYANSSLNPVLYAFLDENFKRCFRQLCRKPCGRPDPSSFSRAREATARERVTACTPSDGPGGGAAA
As for `COCCOCCOCCO[C@H]1CC[C@@]2(O)[C@H]3Cc4ccc(O)c5c4[C@@]2(CCN3CC2CCC2)C1O5` (some centres unmarked) [6-O-mPEG3-Nalbuphine, 6-O-mPEG3-nalbuphine], the “effect at the delta opioid receptor” value is on record as “no effect”.

The target of the next experiment is T1, cloned human kappa opioid receptor (Homo sapiens, UniProt P41145).
T1 construct: expressed in transfected cells; host or cells: CHO cells
T1 sequence (P41145 whole entry): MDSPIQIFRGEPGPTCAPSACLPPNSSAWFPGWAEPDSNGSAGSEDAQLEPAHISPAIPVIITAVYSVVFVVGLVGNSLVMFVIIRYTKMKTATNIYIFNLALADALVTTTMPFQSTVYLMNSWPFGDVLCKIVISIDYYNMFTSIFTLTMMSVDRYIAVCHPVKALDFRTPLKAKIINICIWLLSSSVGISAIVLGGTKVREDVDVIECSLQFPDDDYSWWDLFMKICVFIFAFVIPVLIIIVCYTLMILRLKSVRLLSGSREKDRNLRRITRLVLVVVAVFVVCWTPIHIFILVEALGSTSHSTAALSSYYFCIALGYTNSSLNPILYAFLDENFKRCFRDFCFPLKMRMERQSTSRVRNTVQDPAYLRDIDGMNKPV
In words: cell-based.
Conditions: not given
On the procedure:
The efficacy of the various PEG-opioid conjugates was measured by their ability to inhibit cAMP formation following receptor activation. Studies were conducted in CHO cells heterologously expressing the cloned human mu, kappa or delta opioid receptors. cAMP was measured using a cAMP HiRange homogenous time-resolved fluorescence assay (HTRF Assay), that is based on a competitive immunoassay principle (Cisbio, Cat. #62AM6PEC).
Briefly, suspensions of cells expressing either the mu, kappa or delta opioid receptors were prepared in buffer containing 0.5 mM isobutyl-methyl xanthine (IBMX). […] EC50 values were calculated for each compound from a sigmoidal dose-response plot of concentrations versus maximum response. To determine if the compounds behaved as full or partial agonists in the system, the maximal response at the highest tested concentrations of compounds were compared to that produced by a known full agonist.
The molecule α-6-mPEG6-O-codeine returned an EC50 greater than 500 µM. Molecule α-6-mPEG1-O-codeine came in with an EC50 greater than 500 µM. As for α-6-mPEG4-O-codeine, the EC50 was greater than 500 µM. In the case of α-6-mPEG5-O-codeine, the EC50 was greater than 500 µM. Still for that read-out and setting: next, `COCCOCCOCCOCCO[C@H]1CC[C@@]2(O)[C@H]3Cc4ccc(OC)c5c4[C@@]2(CCN3C)[C@H]1O5` [α-6-mPEG4-O-Hydroxycodone, α-6-mPEG4-O-hydroxycodone]: greater than 500 µM; `COc1ccc2c3c1O[C@H]1C(O)CC[C@@]4(O)[C@@H](C2)N(C)CC[C@]314` (stereo partly drawn) [Hydroxycodone, α-6-hydroxycodone, reference compound]: greater than 500 µM.

The experiment is the same for the next values; noted with them: inhibition of cAMP formation; 3 μM forskolin; tested upto 500 μM.
`COCCOCCO[C@H]1CC[C@@]2(O)[C@H]3Cc4ccc(OC)c5c4[C@@]2(CCN3C)[C@H]1O5` [α-6-mPEG2-O-Hydroxycodone, α-6-mPEG2-O-hydroxycodone]: the EC50 was greater than 500 µM. As for `COCCOCCOCCOCCOCCO[C@H]1CC[C@@]2(O)[C@H]3Cc4ccc(OC)c5c4[C@@]2(CCN3C)[C@H]1O5` [α-6-mPEG5-O-Hydroxycodone, α-6-mPEG5-O-hydroxycodone], the EC50 is greater than 500 µM. Molecule `COCCOCCOCCOCCOCCOCCO[C@H]1CC[C@@]2(O)[C@H]3Cc4ccc(OC)c5c4[C@@]2(CCN3C)[C@H]1O5` [α-6-mPEG6-O-Hydroxycodone, α-6-mPEG6-O-hydroxycodone] yielded an EC50 greater than 500 µM. With `COCCOCCOCCO[C@H]1CC[C@@]2(O)[C@H]3Cc4ccc(OC)c5c4[C@@]2(CCN3C)[C@H]1O5` [α-6-mPEG3-O-Hydroxycodone, α-6-mPEG3-O-hydroxycodone], the EC50 was greater than 500 µM.

For the molecule `COCCOCCOCCOCCOCCOCCOCCOCCOCCO[C@H]1CC[C@@]2(O)[C@H]3Cc4ccc(OC)c5c4[C@@]2(CCN3C)[C@H]1O5` [α-6-mPEG9-O-Hydroxycodone, α-6-mPEG9-O-hydroxycodone], the EC50 was greater than 500 µM.

For the molecule `COCCO[C@H]1CC[C@@]2(O)[C@H]3Cc4ccc(OC)c5c4[C@@]2(CCN3C)[C@H]1O5` [α-6-mPEG1-O-Hydroxycodone, α-6-mPEG1-O-hydroxycodone], the EC50 is greater than 500 µM. Turning to `COCCOCCOCCOCCOCCOCCOCCO[C@H]1CC[C@@]2(O)[C@H]3Cc4ccc(OC)c5c4[C@@]2(CCN3C)[C@H]1O5` [α-6-mPEG7-O-Hydroxycodone, α-6-mPEG7-O-hydroxycodone], the EC50 is greater than 500 µM.

The values are drawn from patent publication US8569343B2, “Oligomer-opioid agonist conjugates” (Nektar Therapeutics, priority 2007, dated 2013).
